In patent publication US20250041264A1, “METHOD FOR TREATING DIABETES BY USING ANTRODIA CAMPHORATA COMPOUND” (Lantyng Biotechnology Corp., priority 2023, published 2025):
Entries after “also recorded” stand apart in the source; their conditions may differ.

Tests used:
[1] = test system: Type 2 Diabetic Mice; experiment: Oral glucose tolerance test (OGTT), final week (16th week), high-fat-diet type 2 diabetic mice; format: in vivo, mice C57BL/6JNarl; details: for average blood sugar at 120 minutes (OGTT): n=6, 120 minutes
Protocol: This experiment uses four-week-old male mice C57BL/6JNarl from National Laboratory Animal Center (Taipei, Taiwan), and they were bred with 12 hours of light/dark cycle under the environment of 23° C.±2° C. Mice were adapted to feed water and food arbitrarily every week, and after one week, they were fed in groups from the commercial feed 1320 (containing 11% fat) purchased from EJOY2 CORP. (New Taipei City, Taiwan) and D12451 (containing 45% high-fat feed) purchased from […] CO., LTD. (Taichung, Taiwan), induced for 12 weeks. During the experiment, the body weight of the mice and the fasting blood sugar value were measured every week and their changes were recorded. The mean±3SD of fasting blood sugar in mice was calculated. If the fasting blood sugar value exceeds the mean±3SD of the normal diet group, tube feeding administration would be started for 4 weeks, and blood sugar tolerance would be tested by tail vein blood collection in the last week of the experiment. […] Referring to FIGS. 1-2, they show the test results of oral glucose tolerance test (OGTT), respectively. Group A (NFD), Group B (NFD+5), Group C (NFD+20), Group D (HFD), Group E (HFD+5), Group F (HFD+10), Group G (HFD+20), Group H (Glibenclamide). NFD refers to normal fat diet, HFD refers to high fat diet, and Glibenclamide is an oral hypoglycemic drug that belongs to type 2 (non-insulin dependent) diabetic patients.

[2] = test system: Type 2 Diabetic Mice; experiment: ALT and AST biochemical analysis in blood (liver function); format: in vivo; details: later stage of treatment (4 weeks), Hitachi 7080 blood biochemical analyzer
Protocol: Mice were adapted to feed water and food arbitrarily every week, and after one week, they were fed in groups from the commercial feed 1320 (containing 11% fat) purchased from EJOY2 CORP. (New Taipei City, Taiwan) and D12451 (containing 45% high-fat feed) purchased from MEDGENE CO., LTD. (Taichung, Taiwan), induced for 12 weeks.
On the last day of the experiment, all animals (except for unplanned deaths) were fasted for 20 hours at the National Laboratory Animal Center and euthanized with pure carbon dioxide, followed by necropsy, organ weight (liver) and gross examination, including evaluation of liver and pancreas. Most lesions of animals were recorded at the time of final sacrifice, including scheduled euthanasia and unscheduled deaths. […]

[3] = test system: Type 2 Diabetic Mice; experiment: Low-density lipoprotein (LDL) detection; format: in vivo, mice C57BL/6JNarl; details: HFD+5 group (SY1 5 mg/kg) compared with Western medicine group and HFD+10

SMILES	fasting blood sugar when no sugar water was fed (OGTT, 16th week) ([1]; HFD, Glibenclamide 5 mg/kg, after 4 weeks of drug treatment)	effect on lowering blood sugar in the later stage of treatment ([1]; HFD, Glibenclamide 5 mg/kg, after 4 weeks of drug treatment, compared with SY1)	liver function index (AST, ALT in blood) [2]	hypoglycemic effect compared with other groups (OGTT) ([1]; HFD+5 group (SY1 5 mg/kg) versus HFD+10, HFD+20 and Glibenclamide groups, 5 mg/kg)	average blood sugar at 120 minutes (OGTT) ([1]; HFD+5 group (high fat diet, SY1 5 mg/kg, tube feeding 4 weeks))	effect on lowering blood sugar 30 minutes after feeding sugar water (OGTT) ([1]; HFD+5 low-dose group (SY1 5 mg/kg))	average blood sugar at 120 minutes (OGTT) ([1]; HFD+10 group (high fat diet, SY1 10 mg/kg, tube feeding 4 weeks))	effect on lowering blood sugar 30 minutes after feeding sugar water (OGTT) ([1]; HFD+10 middle-dose group (SY1 10 mg/kg))	effect on lowering LDL [3]
COc1ccc(Cl)cc1C(=O)NCCc1ccc(S(=O)(=O)NC(=O)NC2CCCCC2)cc1 [Glibenclamide, reference compound]	higher fasting blood sugar increase than any other group	worse than that of SY1	increased and reached a significant difference	–	–	–	–	–	–
COc1cc(C)c(OC)c2c1OCO2 [SY1, 4,7-dimethoxy-5-methyl-1,3-benzodioxole]	–	–	this phenomenon was not seen	equivalent to that of the HFD+10 group; also recorded: more obvious than the high-dose HFD+20 and hypoglycemic drug Glibenclamide group	155.83	obvious effect on lowering blood sugar	155.33	obvious effect on lowering blood sugar	not much different from that of the Western medicine group; also recorded: better than HFD+10
